{"source": "PubChem BioAssay AID2060343", "about": "(Molecular Pharmacology Branch, DTP, NCI, 2025)", "tested_on": "138582-337-R-J1-PDC spheroids with HUVEC/MSC, viability", "test": "Anticancer human tumor 138582-337-R-J1-PDC patient-derived Merkel cell tumor cell line growth inhibition [IpAb]", "conditions": "for viability, T/C: stronger effect = lower value", "description": "Combinatorial screen of targeted agents with ipatasertib and abemaciclib in multi-cell type tumor spheroids\nA high-throughput screen of multi-cell type tumor spheroids was designed to identify active combinations of targeted small molecules and ipatasertib or abemaciclib. Complex spheroids include a stromal component modeled by human endothelial cells (HUVEC) and fibroblasts modeled by human mesenchymal stem cells (MSCs). The concentration ranges selected for each drug and investigational agent were based upon clinically achievable concentrations if the clinical Cmax of the agent was known.\nCompounds. The drugs and investigational agents: ipatasertib (NSC767898), abemaciclib(NSC768073), selumetinib (NSC741078), trametinib (758246), adavosertib (NSC754352), everolimus (NSC733504), sapanisertib (NSC764658), vemurafenib (NSC761431), venetoclax (NSC766270), copanlisib (NSC809693), apelisib (NSC765974), palbociblib (NSC758247), vemurafenib (NSC761431), dabrafenib (NSC764134), ravoxertinib (NSC781343), BMS-387032 (NSC767048), sotorasib (NSC818433), talazoparib (NSC767125) and afursertib (NSC778305), were obtained from the National Cancer Institute (NCI) Developmental Therapeutics Program Chemical Repository. The FDA-approved anticancer drug set is available from the NCI Developmental Therapeutics Program. […] The stock solutions were prepared in dimethyl sulfoxide (DMSO, Sigma-Aldrich, St. Louis, MO, cat. D2650) at 800-fold the tested concentration and stored at -70 degrees C prior to their use. All drugs and investigational agents were tested over a range starting from a high concentration at or near the clinical Cmax and decreasing in half-log increments. If the clinical Cmax for an agent had not been determined, the highest concentration tested was 10 microM.\nNCI60 Cell Culture. NCI60 cell lines were obtained from the NCI Developmental Therapeutics Program Tumor Repository. For each lot of cells, the Repository performed Applied Biosystems AmpFLSTR Identifiler testing with PCR amplification to confirm consistency with the published Identifier STR profile for each cell line. Cells were kept in continuous culture for no more than 20 passages. The optimal seeding densities for each of the cell lines at each time point assessed were determined prior to performing the concentration response studies. Briefly, the NCI60 human tumor lines were grown as monolayers in RPMI 1640 medium supplemented with 10% FBS and 2 mmol/L L-glutamine.\nAn additional 9 lines were from the NCI60 cell line panel including MDA-MB-231 breast carcinoma, MDA-MB-468 breast carcinoma, MCF7 breast carcinoma, Hs578T breast carcinoma, MALME-3M melanoma, SK-MEL-2 melanoma, SK-OV-3 ovarian carcinoma, DU-145 prostate carcinoma, PC-3 prostate carcinoma, all cell lines along with major genetic alterations are listed on Table 2. Pooled donor human umbilical vein endothelial cells (HUVEC, Lonza, cat. CC-2519) and human mesenchymal stem cells (hMSC, Lonza, cat. PT-2501) were purchased from Lonza (Walkersville, MD).\nPDMR cell lines were grown in complete medium (DC medium): Dulbecco's modified Eagle's medium (DMEM)/F12 supplemented with 5% fetal bovine serum (FBS), 2 mM L-glutamine, 100 U/mL penicillin and 100 µg/ml streptomycin, 0.4 µg/ml hydrocortisone, 10 ng/ml epidermal growth factor (EGF) recombinant human protein, 24 µg/mL adenine, and 0.1 mg/mL primocin. During culture from frozen stock vials, PDMR cells were cultured in the same medium containing 10 µM Y-27632 (see Table 3). The PDCs were cultured in complete DMEM/F12 media without 10 microM Y-27632 dihydrochloride for at least two passages prior to the screen. The pooled donor HUVEC and hMSC were cultured in endothelial cell growth medium 2 (PromoCell, Heidelberg, Germany, cat. C-22011) and mesenchymal stem cell growth medium 2 (PromoCell, cat. C-28009), respectively. For all experiments, HUVEC and hMSC were used at passages </=5.\n[…]", "note": "Values joined by “and” are separate entries in the source; they are usually repeats but may differ in a detail not shown here. Equal values may be shown once.", "data": [{"molecule": "C=CC(=O)N1CCN(c2nc(=O)n(-c3c(C)ccnc3C(C)C)c3nc(-c4c(O)cccc4F)c(F)cc23)C(C)C1", "note": "(configuration not stated);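 also: spheroids exposed to compounds for seven days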;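 as to viability, T/C: 100% = DMSO vehicle control viability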", "values": [{"measurement": "viability, T/C", "setting": "compound 0.0316 µM", "value": "101% and 99.3%"}, {"measurement": "viability, T/C", "setting": "compound 0.1 µM", "value": "104% and 97%"}, {"measurement": "viability, T/C", "setting": "compound 0.316 µM", "value": "113% and 121%"}, {"measurement": "viability, T/C", "setting": "compound 1 µM", "value": "120% and 108%"}, {"measurement": "viability, T/C", "setting": "compound 3.16 µM", "value": "149% and 144%"}, {"measurement": "viability, T/C", "setting": "compound 10 µM", "value": "187% and 181%"}, {"measurement": "IC50", "setting": "curve of compound", "value": "> 10000", "unit": "nM"}]}, {"molecule": "C=CCn1c(=O)c2cnc(Nc3ccc(N4CCN(C)CC4)cc3)nc2n1-c1cccc(C(C)(C)O)n1", "values": [{"measurement": "viability, T/C", "setting": "compound 0.0316 µM", "value": "96.7% and 116%"}, {"measurement": "viability, T/C", "setting": "compound 0.1 µM", "value": "93.5% and 103%"}, {"measurement": "viability, T/C", "setting": "compound 0.316 µM", "value": "98.4% and 90.7%"}, {"measurement": "viability, T/C", "setting": "compound 1 µM", "value": "102% and 89.4%"}, {"measurement": "viability, T/C", "setting": "compound 3.16 µM", "value": "126% and 110%"}, {"measurement": "viability, T/C", "setting": "compound 10 µM", "value": "137% and 139%"}, {"measurement": "IC50", "setting": "curve of compound", "value": "> 10000", "unit": "nM"}]}, {"molecule": "CC(=O)c1c(C)c2cnc(Nc3ccc(N4CCNCC4)cn3)nc2n(C2CCCC2)c1=O", "values": [{"measurement": "viability, T/C", "setting": "compound 0.000949 µM", "value": "95.6% and 98.8%"}, {"measurement": "viability, T/C", "setting": "compound 0.003 µM", "value": "104% and 90.5%"}, {"measurement": "viability, T/C", "setting": "compound 0.00949 µM", "value": "102% and 101%"}, {"measurement": "viability, T/C", "setting": "compound 0.03 µM", "value": "93.2% and 87.6%"}, {"measurement": "viability, T/C", "setting": "compound 0.0949 µM", "value": "94.9% and 92%"}, {"measurement": "viability, T/C", "setting": "compound 0.3 µM", "value": "100% and 84.8%"}, {"measurement": "IC50", "setting": "curve of compound", "value": "> 300", "unit": "nM"}]}, {"molecule": "CC(C)(C)c1cnc(CSc2cnc(NC(=O)C3CCNCC3)s2)o1", "values": [{"measurement": "viability, T/C", "setting": "compound 0.00949 µM", "value": "110% and 99.4%"}, {"measurement": "viability, T/C", "setting": "compound 0.03 µM", "value": "110% and 114%"}, {"measurement": "viability, T/C", "setting": "compound 0.0949 µM", "value": "45.9% and 84.2%"}, {"measurement": "viability, T/C", "setting": "compound 0.3 µM", "value": "0.46% and 0.83%"}, {"measurement": "viability, T/C", "setting": "compound 0.949 µM", "value": "0.54% and 0.68%"}, {"measurement": "viability, T/C", "setting": "compound 3 µM", "value": "0.61% and 0.65%"}, {"measurement": "IC50", "setting": "curve of compound", "value": "88.2 nM and 152 nM"}]}, {"molecule": "CC(C)NCC(C(=O)N1CCN(c2ncnc3c2C(C)CC3O)CC1)c1ccc(Cl)cc1", "note": "(configuration not stated)", "values": [{"measurement": "viability, T/C", "setting": "compound 0.1 µM", "value": "92.1% [middle of 13 runs]"}, {"measurement": "viability, T/C", "setting": "compound 0.316 µM", "value": "79.9% [middle of 13 runs]"}, {"measurement": "viability, T/C", "setting": "compound 1 µM", "value": "64.4% [middle of 13 runs]"}, {"measurement": "viability, T/C", "setting": "compound 3.16 µM", "value": "53.1% [middle of 13 runs]"}, {"measurement": "viability, T/C", "setting": "compound 10 µM", "value": "42.7% [middle of 13 runs]"}]}, {"molecule": "CC(C)n1nc(-c2ccc3oc(N)nc3c2)c2c(N)ncnc21", "values": [{"measurement": "viability, T/C", "setting": "compound 0.000316 µM", "value": "97% and 95%"}, {"measurement": "viability, T/C", "setting": "compound 0.001 µM", "value": "90.5% and 88.2%"}, {"measurement": "viability, T/C", "setting": "compound 0.00316 µM", "value": "82.9% and 83.9%"}, {"measurement": "viability, T/C", "setting": "compound 0.01 µM", "value": "70% and 77.5%"}, {"measurement": "viability, T/C", "setting": "compound 0.0316 µM", "value": "59.4% and 57.2%"}, {"measurement": "viability, T/C", "setting": "compound 0.1 µM", "value": "39.2% and 46.5%"}, {"measurement": "IC50", "setting": "curve of compound", "value": "51.9 nM and 70.1 nM"}]}, {"molecule": "CC1(C)CCC(CN2CCN(c3ccc(C(=O)NS(=O)(=O)c4ccc(NCC5CCOCC5)c([N+](=O)[O-])c4)c(Oc4cnc5[nH]ccc5c4)c3)CC2)=C(c2ccc(Cl)cc2)C1", "values": [{"measurement": "viability, T/C", "setting": "compound 0.0316 µM", "value": "86% and 96.1%"}, {"measurement": "viability, T/C", "setting": "compound 0.1 µM", "value": "83.1% and 79.8%"}, {"measurement": "viability, T/C", "setting": "compound 0.316 µM", "value": "74.2% and 75.6%"}, {"measurement": "viability, T/C", "setting": "compound 1 µM", "value": "80.1% and 87.6%"}, {"measurement": "viability, T/C", "setting": "compound 3.16 µM", "value": "97% and 94.6%"}, {"measurement": "viability, T/C", "setting": "compound 10 µM", "value": "78% and 68.1%"}, {"measurement": "IC50", "setting": "curve of compound", "value": "> 10000", "unit": "nM"}]}, {"molecule": "CCCS(=O)(=O)Nc1ccc(F)c(C(=O)c2c[nH]c3ncc(-c4ccc(Cl)cc4)cc23)c1F", "values": [{"measurement": "viability, T/C", "setting": "compound 0.0316 µM", "value": "96.5% and 102%"}, {"measurement": "viability, T/C", "setting": "compound 0.1 µM", "value": "89.8% and 97.6%"}, {"measurement": "viability, T/C", "setting": "compound 0.316 µM", "value": "101% and 98.8%"}, {"measurement": "viability, T/C", "setting": "compound 1 µM", "value": "92.3% and 99%"}, {"measurement": "viability, T/C", "setting": "compound 3.16 µM", "value": "115% and 116%"}, {"measurement": "viability, T/C", "setting": "compound 10 µM", "value": "97.3% and 81.5%"}, {"measurement": "IC50", "setting": "curve of compound", "value": "> 10000", "unit": "nM"}]}, {"molecule": "CCN1CCN(Cc2ccc(Nc3ncc(F)c(-c4cc(F)c5nc(C)n(C(C)C)c5c4)n3)nc2)CC1", "values": [{"measurement": "viability, T/C", "setting": "compound 0.01 µM", "value": "96.6% [middle of 13 runs]"}, {"measurement": "viability, T/C", "setting": "compound 0.0316 µM", "value": "90.6% [middle of 13 runs]"}, {"measurement": "viability, T/C", "setting": "compound 0.1 µM", "value": "90.9% [middle of 13 runs]"}, {"measurement": "viability, T/C", "setting": "compound 0.316 µM", "value": "90.5% [middle of 13 runs]"}, {"measurement": "viability, T/C", "setting": "compound 1 µM", "value": "96.4% [middle of 13 runs]"}, {"measurement": "IC50", "setting": "compound alone, run of 05/18/2021", "value": "> 1000", "unit": "nM"}]}, {"molecule": "COc1c(OCCCN2CCOCC2)ccc2c3n(c(=NC(=O)c4cnc(N)nc4)nc12)CCN3", "values": [{"measurement": "viability, T/C", "setting": "compound 0.00316 µM", "value": "94.9% and 84.9%"}, {"measurement": "viability, T/C", "setting": "compound 0.01 µM", "value": "71.2% and 75.9%"}, {"measurement": "viability, T/C", "setting": "compound 0.0316 µM", "value": "53.5% and 58.3%"}, {"measurement": "viability, T/C", "setting": "compound 0.1 µM", "value": "36.1% and 37.8%"}, {"measurement": "viability, T/C", "setting": "compound 0.316 µM", "value": "17.5% and 18%"}, {"measurement": "viability, T/C", "setting": "compound 1 µM", "value": "2.36% and 3.37%"}, {"measurement": "IC50", "setting": "curve of compound", "value": "39 nM and 51.2 nM"}]}]}
